Experimental data as given in patent US7196190B2, “Methods and compositions for screening for angiogenesis modulating compounds” (Xenogen Corporation, priority 1999, dated 2007).

System: VEGFR-2 promoter
Experiment: In vivo bioluminescence imaging of female VEGFR2 transgenic mouse during estrus
Conditions: subcutaneous 30mg/kg/day for 16 days, female VEGFR2 transgenic F1 mouse (founder KA); before treatment signal high for a maximum of 3–5 days
From the text: Two female VEGFR2 transgenic F1 mice from founder KA (See Example 7 above) were subjected to in vivo imaging of bioluminescence both dorsally and ventrally over a 16 day period according to the methods described in U.S. Pat. No. 5,650,135 to Contag et al. The results are presented graphically in FIGS. 18A–18D (FIGS. 18A and 18B, mouse 1 and 2 dorsal views, respectively, and FIGS. 18C and 18D, mouse 1 and 2 ventral views, respectively). […] In general, higher levels of luminescence were detectable ventrally as compared to dorsally. The signals appeared to be localized in the ovary (dorsal view) and uterus (ventral view). Both ovaries were clearly visible in most of the dorsal views. The uterus, connecting tubes and ovaries were visible in some of the ventral views.
The effect of the known estrogen antagonist ICI 182 780 (Tocris Cookson Ltd. Bristol, UK) on gene expression mediated by the VEGFR-2 promoter was investigated using the methods described in the preceding example.
A mature female VEGFR2 transgenic F1 mouse from founder KA (See Example 7 above) was imaged daily for 16 days according to the methods described in U.S. Pat. No. 5,650,135 to Contag et al. The bioluminescence signal remained high for a maximum of from 3–5 days, dropping back to a basal level for the interim periods. […]

## C[C@]12CC[C@@H]3c4ccc(O)cc4C[C@@H](CCCCCCCCC[S+]([O-])CCCC(F)(F)C(F)(F)F)[C@H]3[C@@H]1CC[C@@H]2O (stereo partly shown) [ICI 182 780]
  time the uterine bioluminescence signal remained high before dropping back to basal level: 9 days
